According to ChEMBL document CHEMBL4325911, “Discovery of N-(piperidin-3-yl)-N-(pyridin-2-yl)piperidine/piperazine-1-carboxamides as small molecule inhibitors of PCSK9” (Bioorg Med Chem Lett, 2018):

Legend:
80S Ribosome [1] = assay: Binding affinity to 80S ribosome in human HeLa cells lysates using human full length PCSK9 encoding mRNAs assessed as inhibition of PCSK9 mRNA translation after 45 mins by Steady-Glo luciferase reporter gene assay; format: cell-free
[2] = Lipophilicity, log D of the compound by shake flask method; format: physicochemical; details: octanol/water
[3] = Permeability in RRCK cells measured up to 1.5 hrs; format: ADME, cell-based, Canis lupus familiaris, MDCKII-LE; details: dog, MDCK; read-out: permeability
80S Ribosome [4] = assay: Binding affinity to 80S ribosome in human HuH7 cells harboring human PCSK9 (1 to 152 residues)-proLuc assessed as inhibition of PCSK9 mRNA translation after overnight incubation by luciferase reporter gene assay; format: cell-based; details: huh-7
[5] = Intrinsic clearance in human liver microsomes; format: ADME, Microsome; details: read-out: CLH
[6] = target: Voltage-gated inwardly rectifying potassium channel KCNH2 (Homo sapiens, UniProt Q12809); assay: Binding affinity to human ERG by dofetilide fluorescence polarization binding assay
Chain of Voltage-gated inwardly rectifying potassium channel KCNH2 (Q12809 whole entry): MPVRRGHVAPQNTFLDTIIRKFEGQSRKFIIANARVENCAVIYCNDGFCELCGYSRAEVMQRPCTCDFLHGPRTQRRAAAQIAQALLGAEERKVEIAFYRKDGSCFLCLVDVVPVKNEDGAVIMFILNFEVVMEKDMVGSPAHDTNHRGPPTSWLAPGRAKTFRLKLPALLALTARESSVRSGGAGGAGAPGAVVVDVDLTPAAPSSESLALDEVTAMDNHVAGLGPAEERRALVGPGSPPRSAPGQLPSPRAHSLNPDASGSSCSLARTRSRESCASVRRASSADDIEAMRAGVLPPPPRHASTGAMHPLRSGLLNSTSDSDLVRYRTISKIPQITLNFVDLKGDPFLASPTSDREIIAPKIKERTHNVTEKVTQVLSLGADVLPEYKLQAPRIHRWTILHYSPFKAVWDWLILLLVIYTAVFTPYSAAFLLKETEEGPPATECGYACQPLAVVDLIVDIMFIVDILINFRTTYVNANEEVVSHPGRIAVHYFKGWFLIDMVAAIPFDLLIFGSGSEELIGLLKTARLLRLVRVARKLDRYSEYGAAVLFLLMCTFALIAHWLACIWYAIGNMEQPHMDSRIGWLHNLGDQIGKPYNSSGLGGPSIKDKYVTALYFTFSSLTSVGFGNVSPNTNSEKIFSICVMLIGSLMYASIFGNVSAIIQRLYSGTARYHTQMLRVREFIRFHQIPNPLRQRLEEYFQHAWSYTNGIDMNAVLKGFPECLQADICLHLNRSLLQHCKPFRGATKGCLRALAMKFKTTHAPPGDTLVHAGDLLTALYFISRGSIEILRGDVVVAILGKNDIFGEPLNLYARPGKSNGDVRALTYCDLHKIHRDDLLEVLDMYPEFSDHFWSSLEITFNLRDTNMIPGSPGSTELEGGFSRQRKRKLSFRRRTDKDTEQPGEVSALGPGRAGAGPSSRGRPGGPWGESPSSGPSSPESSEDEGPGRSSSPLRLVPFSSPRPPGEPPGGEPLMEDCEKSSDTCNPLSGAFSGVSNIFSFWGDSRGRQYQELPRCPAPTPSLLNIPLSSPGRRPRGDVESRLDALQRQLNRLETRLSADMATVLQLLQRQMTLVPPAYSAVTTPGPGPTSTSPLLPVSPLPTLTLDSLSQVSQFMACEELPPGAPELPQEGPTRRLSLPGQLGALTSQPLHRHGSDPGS

Bone marrow cell = assay: Cytotoxicity against rat bone marrow cells assessed as reduction in cell viability after 72 hrs by celltiter glo assay; format: cell-based

## COc1ccc(CCC(=O)N(c2nccc3ccccc23)[C@@H]2CCCNC2)cc1
80S Ribosome [1]
  IC50: 8.04 µM
[2]
  logD: 1

## O=C(c1ccc(-c2ccccc2)cc1)N(c1nccc2ccccc12)[C@@H]1CCCNC1
[3]
  Papp at 1.5 h: 0.3 ×10⁻⁶ cm/s

## O=C(N1CCC(c2cnn3cccnc23)CC1)N(c1ncccc1Cl)[C@@H]1CCCNC1
80S Ribosome [4]
  IC50: > 20 µM
[2]
  logD: -0.5
[5]
  microsomal CLint: < 8 µL/min/mg
[3]
  Papp at 1.5 h: 1.8 ×10⁻⁶ cm/s

## O=C(N1CCC(c2ccccc2)CC1)N(c1ncccc1Cl)[C@@H]1CCCNC1
80S Ribosome [4]
  IC50: 2.21 µM
80S Ribosome [1]
  IC50: 2.08 µM
[2]
  logD: 0.9
[5]
  microsomal CLint: < 9.3 µL/min/mg
[3]
  Papp at 1.5 h: 12.8 ×10⁻⁶ cm/s
[6]
  Ki: 14.3 µM

## O=C(N1CCN(c2ccccc2)CC1)N(c1nccc2ccccc12)[C@@H]1CCCNC1
80S Ribosome [4]
  IC50: 12.6 µM
[2]
  logD: 0.8
[5]
  microsomal CLint: 13.8 µL/min/mg
[3]
  Papp at 1.5 h: 5.8 ×10⁻⁶ cm/s
[6]
  Ki: 9.2 µM

## Cc1nccnc1N(C(=O)N1CCC(c2ccccc2)CC1)[C@@H]1CCCNC1
80S Ribosome [1]
  IC50: 3.63 µM
[2]
  logD: 0.3
[5]
  microsomal CLint: < 8 µL/min/mg
Bone marrow cell
  IC50: > 100 µM
[3]
  Papp at 1.5 h: 11.5 ×10⁻⁶ cm/s
[6]
  Ki: 24.8 µM

## Cc1ccc2c(N3CCN(C(=O)N(c4nccc5ccccc45)[C@@H]4CCCNC4)CC3)noc2c1
80S Ribosome [4]
  IC50: 3.5 µM
[2]
  logD: 1.6
[5]
  microsomal CLint: 12.9 µL/min/mg
Bone marrow cell
  IC50: 31.1 µM
[3]
  Papp at 1.5 h: 8.9 ×10⁻⁶ cm/s
[6]
  Ki: 1.2 µM

## Cc1cccnc1N(C(=O)N1CCC(c2ccccc2F)CC1)[C@@H]1CCCNC1
80S Ribosome [1]
  IC50: 4.38 µM
[2]
  logD: 1
[5]
  microsomal CLint: < 8 µL/min/mg
Bone marrow cell
  IC50: 46.2 µM
[3]
  Papp at 1.5 h: 9.5 ×10⁻⁶ cm/s
[6]
  Ki: 9.8 µM

## Cc1cnc2c(c1)nnn2-c1ccc(CCC(=O)N(c2ncccc2Cl)[C@@H]2CCCNC2)nc1
80S Ribosome [4]
  IC50: 0.85 µM
80S Ribosome [1]
  IC50: 2.27 µM
[2]
  logD: 0.7
[5]
  microsomal CLint: 9.3 µL/min/mg
Bone marrow cell
  IC50: 27.1 µM
[3]
  Papp at 1.5 h: 6.2 ×10⁻⁶ cm/s
[6]
  Ki: 5.9 µM

## O=C(N1CCC(c2ccccc2)CC1)N(c1nccc2ccccc12)[C@@H]1CCCNC1
80S Ribosome [4]
  IC50: 1.73 µM
80S Ribosome [1]
  IC50: 1.54 µM
[2]
  logD: 1.4
[5]
  microsomal CLint: 13.9 µL/min/mg
Bone marrow cell
  IC50: 12.7 µM
[3]
  Papp at 1.5 h: 3.9 ×10⁻⁶ cm/s
[6]
  Ki: 4.1 µM

## Cc1cccnc1N(C(=O)N1CCC(c2cnn3cccnc23)CC1)[C@@H]1CCCNC1
80S Ribosome [1]
  IC50: 0.92 µM
[2]
  logD: 0.2
[5]
  microsomal CLint: < 8 µL/min/mg
Bone marrow cell
  IC50: 10.1 µM
[3]
  Papp at 1.5 h: 1.8 ×10⁻⁶ cm/s
[6]
  Ki: > 40 µM

## Cn1ccc2ccnc(N(C(=O)N3CCC(c4ccccc4)CC3)[C@@H]3CCCNC3)c21
80S Ribosome [1]
  IC50: 0.5 µM
[2]
  logD: 1.4
[5]
  microsomal CLint: 11.8 µL/min/mg
Bone marrow cell
  IC50: 11.7 µM
[3]
  Papp at 1.5 h: 5.2 ×10⁻⁶ cm/s
[6]
  Ki: 5.7 µM

## Cc1cccnc1N(C(=O)N1CCC(c2ccccc2)CC1)[C@@H]1CCCNC1
80S Ribosome [4]
  IC50: 2.05 µM
80S Ribosome [1]
  IC50: 2.33 µM
[2]
  logD: 0.7
[5]
  microsomal CLint: < 8 µL/min/mg
[3]
  Papp at 1.5 h: 8.7 ×10⁻⁶ cm/s
[6]
  Ki: > 25 µM
